Here are results for nine compounds from US5190929A, “Cyclophosphamide analogs useful as anti-tumor agents” (Research Corporation Technologies, Inc., priority 1988, dated 1993).

Data set [1] deals with L1210 murine leukemia cells, cyclophosphamide-resistant (/CP). As to the kind of experiment: In vitro soft agar colony-forming cytotoxicity assay, cyclophosphamide-resistant L1210 cells. The class given is cell-based, mouse. Conditions: for LC99: L1210 /CP (cyclophosphamide-resistant), 1-hour exposure, 99% cell kill; for RF, resistance factor = ratio of LC99 in resistant/sensitive cells: L1210, 60 min. Also noted: LC99: unit not given here. The source says:
(§1) A soft agar colony-forming assay according to the procedure of Chu and Fischer, Biochem. Pharmacol., 17, 753-767 (1968) was used and modified where necessary. Cultured mouse L1210 and P388 sensitive cells were purchased from EG&G Mason Research Institute, Tumor Bank, Worchester, Mass. Cultured cyclophosphamide resistant L1210 and P388 cells were obtained from Dr. Robert Struck of Southern Research Institute, Birmingham, Ala. Typically, the desired cells (2-3×10^6 cells/ml) in exponential growth and suspended in 6.5 ml of Fischer's medium (Gibco Lab., Grand Island, N.Y.) were divided into six groups (1 control and 5 treated groups) containing an equal number of cells in 1 ml. These cells were then treated with varying doses of drug (solution of perhydrooxazine in media or 20% ethanol-water), diluted with media to give a total volume of 10 ml, and incubated for one hour at 37° C. The cells were washed three times with 3 ml of supplemented Fischer's medium (containing 10% horse serum) by centrifuge (800×g), removal of media by suction, and resuspension of the pellet in media (5 ml). A 1-ml portion was used to determine the cell count with a Coulter counter. From the remainder, a 5-ml suspension of cells was prepared at a density of 10^5 cells/ml, and between 10^2 and 10^5 cells were placed on soft agar and incubated at 37° C. Colonies were counted after 10 days. The log of the surviving fraction was plotted vs. drug concentration and from this plot the LC99 was obtained. (By definition, the LC99 value represents the concentration of drug necessary to effect a 99% cell kill.)

Data set [2] concerns P388 murine leukemia cells, cyclophosphamide-sensitive (/0). As to the kind of experiment: In vitro soft agar colony-forming cytotoxicity assay, cyclophosphamide-sensitive P388 cells. The class given is cell-based, mouse. Also noted: unit not given here. Conditions: P388 /0 (sensitive); 1-hour exposure, 99% cell kill.
Excerpt: as §1

For data set [3], the system named is P388 murine leukemia cells, cyclophosphamide-resistant (/CP). As to the kind of experiment: In vitro soft agar colony-forming cytotoxicity assay, cyclophosphamide-resistant P388 cells. The class given is cell-based, mouse. Also noted: LC99: unit not given here. Conditions: for LC99: P388 /CP (cyclophosphamide-resistant), 1-hour exposure, 99% cell kill; for RF, resistance factor = ratio of LC99 in resistant/sensitive cells: P388, 60 min.
Excerpt: as §1

The subject of data set [4] is L1210 murine leukemia cells, cyclophosphamide-sensitive (/0). As to the kind of experiment: In vitro soft agar colony-forming cytotoxicity assay, cyclophosphamide-sensitive L1210 cells. The data set is classed as cell-based, mouse. Also noted: unit not given here. Conditions: L1210 /0 (sensitive); 1-hour exposure, 99% cell kill.
Excerpt: as §1

In another data set the test system is L1210 tumor cells. As to the kind of experiment: In vivo antitumor activity, survival of L1210 bearing mice. Also noted: species or system mouse (male B6 D2 F1). Conditions: for Long Term Survivors: experiment terminated on day 30; for response vs control in vivo at 34 µmol/kg / response vs control in vivo at 51 µmol/kg / response vs control in vivo at 68 µmol/kg / response vs control in vivo at 17 µmol/kg: Mus musculus, L1210, ip, read-out: Survival of L1210 bearing mice - % T/C × 100; for response vs control in vivo at 17 µmol/kg: 17 umol/kg; for toxicity compared with the reference activated cyclophosphamide: higher doses. Here is the method: (§2) Typically 4 groups of 10 male B6 D2 F1 mice (Jackson Breeding Lab., Bar Harbor Me) were injected i.p. with 1×10^5 L1210 tumor cells. Twenty four hours after injection three groups were treated (i.p. injection) with varying doses of drug, and the fourth group received the vehicle alone. The mice were observed daily and death dates were recorded. The experiment was terminated on day 30 and median survival time (days) and % T/C (ratio of median survival time of treated group divided by the […] survival time of the control group) was calculated. The drug was delivered using either an isotonic saline solution or a carboxymethyl cellulose suspension depending on the solubility of the drug.

The next data set relates to CP-resistant L1210 cells. The experiment in a line: In vivo antitumor activity, survival of mice bearing CP-resistant L1210 cells. Also noted: species or system mouse (male B6 D2 F1). Conditions: for Survival of L1210 bearing mice - % T/C × 100: CP-resistant L1210, i.p. Here is the method:
as §2

For the compound `CC1CC(OO)NP(=O)(N(CCCl)CCCl)O1` (stereo not drawn) [Compound 1, 4-hydroperoxy-6-methylcyclophosphamide], the LC99 in data set [1] is on record as 177; in data set [2] it was 26; in data set [3] it was 69; in data set [4], 32. The results for the “RF, resistance factor = ratio of LC99 in resistant/sensitive cells” value in data set [1] and in data set [3] were 5.5 and 2.7, respectively. Also, the “Long Term Survivors” value in the data set on L1210 tumor cells (34 umol/kg, i.p.) is given as 2/6. The response vs control in vivo at 34 µmol/kg in the data set with L1210 tumor cells (34 umol/kg, i.p.) was 138%. The response vs control in vivo at 51 µmol/kg in the data set on L1210 tumor cells (51 umol/kg, i.p.) turned out to be 56%. Moreover, in the data set on L1210 tumor cells (68 umol/kg, i.p.), the response vs control in vivo at 68 µmol/kg came to 50%.
For the compound `CC(C)C1CC(OO)NP(=O)(N(CCCl)CCCl)O1` (stereo not drawn) [Compound 2, 4-hydroperoxy-6-isopropylcyclophosphamide], the LC99 is 115 in data set [1], 86 in data set [2], 61 in data set [3] and 105 in data set [4]. For the same compound, the “RF, resistance factor = ratio of LC99 in resistant/sensitive cells” value in data set [1] was determined as 1.1; in data set [3], 0.7.
`O=P1(N(CCCl)CCCl)NC(OO)CC(CCc2ccccc2)O1` (stereo not drawn) [Compound 3, 4-hydroperoxy-6-phenethylcyclophosphamide]: the LC99 amounted to 9 in data set [1], 9 in data set [2], 5 in data set [3] and 11 in data set [4]. Further, the “RF, resistance factor = ratio of LC99 in resistant/sensitive cells” value in data set [1] came to 1.1; in data set [3] it was 0.6. The response vs control in vivo at 34 µmol/kg with L1210 tumor cells (34 umol/kg, i.p.) came out at 106%. In addition, the response vs control in vivo at 51 µmol/kg in the data set with L1210 tumor cells (51 umol/kg, i.p.) came out at 25%.
On to `O=P1(N(CCCl)CCCl)NC(OO)CC(c2ccccc2)O1` (stereo not drawn) [Compound 4, 4-hydroperoxy-6-phenylcyclophosphamide], for which the LC99 in data set [1] was 15; in data set [2] it was 11; in data set [3] it was 7; in data set [4] it was 17. Further, the “RF, resistance factor = ratio of LC99 in resistant/sensitive cells” value was 0.9 in data set [1] and 0.6 in data set [3]. Moreover, in the data set with L1210 tumor cells (51 umol/kg, i.p.), the “Survival of L1210 bearing mice - % T/C × 100” value is “toxic”. Also, in the data set with L1210 tumor cells (i.p.), the response vs control in vivo at 17 µmol/kg turned out to be 117%. Moreover, in the data set with L1210 tumor cells (34 umol/kg, i.p.), the response vs control in vivo at 34 µmol/kg worked out at 144%.
Take `O=[N+]([O-])c1ccc(C2CC(OO)NP(=O)(N(CCCl)CCCl)O2)cc1` (stereo not drawn) [Compound 5, 4-hydroperoxy-6-p-nitrophenylcyclophosphamide]: the LC99 in data set [1] was found to be 8; in data set [2], 7; in data set [3] it was 3; in data set [4] it was 8. Also, the “RF, resistance factor = ratio of LC99 in resistant/sensitive cells” value in data set [1] is listed as 1.0; in data set [3], 0.4. Also, the “Long Term Survivors” value in the data set with L1210 tumor cells (34 umol/kg, i.p.) is listed as 1/6; in the data set on L1210 tumor cells (51 umol/kg, i.p.), 2/6; with L1210 tumor cells (68 umol/kg, i.p.), 4/6. Besides, the response vs control in vivo at 34 µmol/kg in the data set with L1210 tumor cells (34 umol/kg, i.p.) stood at 163%. For the same compound, the response vs control in vivo at 51 µmol/kg with L1210 tumor cells (51 umol/kg, i.p.) came to 194%. Moreover, the response vs control in vivo at 68 µmol/kg in the data set on L1210 tumor cells (68 umol/kg, i.p.) turned out to be 225%. Also, the “antitumor activity in L1210 leukemic mice” value (“antitumor activity” below) with L1210 tumor cells (all doses tested) is reported as “highly active at all doses tested”. The “toxicity compared with the reference activated cyclophosphamide” value in the data set on L1210 tumor cells is listed as “less toxic at higher doses than the reference activated cyclophosphamide”.
With `Cc1ccc(C2CC(OO)NP(=O)(N(CCCl)CCCl)O2)cc1` (stereo not drawn) [Compound 6, 4-Hydroperoxy-6-p-tolylcyclophosphamide], the LC99 in data set [1] is recorded as 6; in data set [2], 3; in data set [3] it was 3; in data set [4], 5. The “RF, resistance factor = ratio of LC99 in resistant/sensitive cells” value in data set [1] was found to be 1.2; in data set [3], 1.0. Further, the “Long Term Survivors” value in the data set with L1210 tumor cells (51 umol/kg, i.p.) is reported as 1/6; with L1210 tumor cells (68 umol/kg, i.p.) it was 1/6. In the data set with L1210 tumor cells (34 umol/kg, i.p.), the response vs control in vivo at 34 µmol/kg was 150%. Further, in the data set on L1210 tumor cells (51 umol/kg, i.p.), the response vs control in vivo at 51 µmol/kg was 175%. The response vs control in vivo at 68 µmol/kg with L1210 tumor cells (68 umol/kg, i.p.) was found to be 180%. For the same compound, in the data set with L1210 tumor cells (all doses tested), the “antitumor activity” value is reported as “highly active at all doses tested”. In addition, the “toxicity compared with the reference activated cyclophosphamide” value with L1210 tumor cells is recorded as “less toxic at higher doses than the reference activated cyclophosphamide”.
For `O=P1(N(CCCl)CCCl)NC(OO)CC(c2ccc(F)cc2)O1` (stereo not drawn) [Compound 7, 4-hydroperoxy-6-p-fluorophenylcyclophosphamide], the LC99 in data set [1] is on record as 8; in data set [2], 6; in data set [3], 3; in data set [4], 7. Moreover, the “RF, resistance factor = ratio of LC99 in resistant/sensitive cells” value in data set [1] worked out at 1.1; in data set [3] it was 0.5. Moreover, the “Long Term Survivors” value with L1210 tumor cells (51 umol/kg, i.p.) is on record as 1/6; in the data set with L1210 tumor cells (68 umol/kg, i.p.), 1/6. The response vs control in vivo at 34 µmol/kg with L1210 tumor cells (34 umol/kg, i.p.) was determined as 163%. In addition, in the data set on L1210 tumor cells (51 umol/kg, i.p.), the response vs control in vivo at 51 µmol/kg came to 188%. Also, in the data set with L1210 tumor cells (68 umol/kg, i.p.), the response vs control in vivo at 68 µmol/kg was 63%. For the same compound, the “antitumor activity” value in the data set with L1210 tumor cells (lower doses tested) was “highly active at the lower doses tested”.
As to `O=P1(N(CCCl)CCCl)NC(OO)CC(c2cccnc2)O1` (stereo not drawn) [Compound 8, 4-hydroxyperoxy-6-(3-pyridyl)cyclophosphamide], the LC99 in data set [1] is given as 56; in data set [2], 33; in data set [3], 24; in data set [4], 36. Besides, the results for the “RF, resistance factor = ratio of LC99 in resistant/sensitive cells” value in data set [1] and in data set [3] were 1.6 and 0.7, respectively. In addition, the response vs control in vivo at 34 µmol/kg with L1210 tumor cells (34 umol/kg, i.p.) came to 131%. Besides, in the data set on L1210 tumor cells (51 umol/kg, i.p.), the response vs control in vivo at 51 µmol/kg was determined as 69%. The response vs control in vivo at 68 µmol/kg in the data set on L1210 tumor cells (68 umol/kg, i.p.) was found to be 63%.
With `O=P1(N(CCCl)CCCl)NC(OO)CC(c2ccncc2)O1` (stereo not drawn) [Compound 9, 4-Hydroperoxy-6-(4-pyridyl)cyclophosphamide], the “Survival of L1210 bearing mice - % T/C × 100” value in the data set on CP-resistant L1210 cells (17 umol/kg) is given as 119%; in the data set on CP-resistant L1210 cells (34 umol/kg), 131%; in the data set on CP-resistant L1210 cells (51 umol/kg), 138%; in the data set with CP-resistant L1210 cells (68 umol/kg), 150%. Also, in the data set on CP-resistant L1210 cells (cyclophosphamide resistant L1210 leukemia), the “survival / lifespan of mice bearing cyclophosphamide resistant L1210 leukemia” value is recorded as “prolongs the survival of these mice bearing the drug-resistant leukemia at all doses tested”. Further, the LC99 was determined as 57 in data set [1], 44 in data set [2], 27 in data set [3] and 53 in data set [4]. The “RF, resistance factor = ratio of LC99 in resistant/sensitive cells” value is given as 1.1 in data set [1] and 0.6 in data set [3]. Further, the “Long Term Survivors” value in the data set on L1210 tumor cells (68 umol/kg, i.p.) is given as 1/6. Also, in the data set on L1210 tumor cells (i.p.), the response vs control in vivo at 17 µmol/kg stood at 131%. For the same compound, the response vs control in vivo at 34 µmol/kg in the data set on L1210 tumor cells (34 umol/kg, i.p.) amounted to 150%. Moreover, in the data set on L1210 tumor cells (51 umol/kg, i.p.), the response vs control in vivo at 51 µmol/kg turned out to be 164%. Besides, the response vs control in vivo at 68 µmol/kg with L1210 tumor cells (68 umol/kg, i.p.) is 193%. For the same compound, the “antitumor activity” value with L1210 tumor cells (all doses tested) was “highly active at all doses tested”. Also, the “toxicity compared with the reference activated cyclophosphamide” value with L1210 tumor cells is “less toxic at higher doses than the reference activated cyclophosphamide”.
